Source: ChEMBL document CHEMBL5465560, “Selectivity Literature for EUbOPEN Chemogenomic Library” (2024)

How the values were obtained:
[1] = target: Aurora kinase B (Homo sapiens, UniProt Q96GD4); experiment: Selectivity interaction (Enyzmatic assay) EUB0000601a AURKB
[2] = target: SRSF protein kinase 3 (Homo sapiens) (UniProt Q9UPE1); experiment: Selectivity interaction (Ambit KINOMEscan and KiNATiv profiling in Jurkat cells) EUB0000090b SRPK3; assay type: cell-based; settings: at 1 µM
[3] = target: Tyrosine-protein kinase ABL2 (Homo sapiens, UniProt P42684); experiment: Selectivity interaction (KinomeScan (DiscoverX)) EUB0000655a ABL2; settings: at 10 µM
[4] = target: RAC-alpha serine/threonine-protein kinase (Homo sapiens, UniProt P31749); experiment: Selectivity interaction (KinomeScan (DiscoverX)) EUB0001079a AKT1; settings: at 1 µM
[5] = target: T1, Serine/threonine-protein kinase 4 (Homo sapiens) (UniProt Q13043); experiment: Selectivity interaction (KinomeScan (DiscoverX)) EUB0001079a STK4; settings: at 1 µM
T1 sequence (whole entry): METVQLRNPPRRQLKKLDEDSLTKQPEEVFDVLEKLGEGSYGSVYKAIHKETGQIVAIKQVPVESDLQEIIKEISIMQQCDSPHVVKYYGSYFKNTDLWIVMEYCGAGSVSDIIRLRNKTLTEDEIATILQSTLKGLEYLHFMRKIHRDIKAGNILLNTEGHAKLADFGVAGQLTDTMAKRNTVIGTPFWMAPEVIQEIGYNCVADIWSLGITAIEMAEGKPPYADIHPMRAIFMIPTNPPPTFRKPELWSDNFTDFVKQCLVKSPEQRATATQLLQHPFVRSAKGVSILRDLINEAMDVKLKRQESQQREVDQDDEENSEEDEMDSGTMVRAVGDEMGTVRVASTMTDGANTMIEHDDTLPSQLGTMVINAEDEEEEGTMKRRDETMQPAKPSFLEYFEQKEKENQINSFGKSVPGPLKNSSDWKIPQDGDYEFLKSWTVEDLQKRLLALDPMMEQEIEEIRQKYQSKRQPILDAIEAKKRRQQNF

[6] = target: Ribosomal protein S6 kinase alpha-6 (Homo sapiens, UniProt Q9UK32); experiment: Selectivity interaction (KinomeScan (DiscoverX)) EUB0001619a RPS6KA6; settings: at 1 µM
[7] = target: Activated CDC42 kinase 1 (Homo sapiens, UniProt Q07912); experiment: Selectivity interaction (KinomeScan (DiscoverX)) EUB0001619a TNK2; settings: at 1 µM
[8] = target: Hepatocyte growth factor receptor (Homo sapiens, UniProt P08581); settings: at 1 µM
[9] = target: Histone-lysine N-methyltransferase SETDB1 (Homo sapiens) (UniProt Q15047); settings: at 1 µM
[10] = target: Ribosomal protein S6 kinase alpha-4 (Homo sapiens) (UniProt O75676); experiment: Selectivity interaction (KinomeScan (DiscoverX)) EUB0000229b RPS6KA4; settings: at 10 µM
[11] = target: Platelet-derived growth factor receptor alpha (Homo sapiens, UniProt P16234); experiment: (§1) Selectivity interaction (ProQinase) EUB0000171b PDGFRA
[12] = system: Platelet-derived growth factor receptor alpha (Homo sapiens), P16234 [D842V]; experiment: as §1
[13] = system: Platelet-derived growth factor receptor alpha (Homo sapiens), P16234 [T674I]; experiment: as §1
[14] = system: Platelet-derived growth factor receptor alpha (Homo sapiens), P16234 [V561D]; experiment: as §1
[15] = target: Cyclin-C/Cyclin-dependent kinase 19 (Homo sapiens) (UniProt Q9BWU1+P24863); experiment: Selectivity interaction (ProQinase) EUB0000171b CDK19; assay type: protein-complex assay
[16] = target: T2, Serine/threonine-protein kinase Nek10 (Homo sapiens) (UniProt Q6ZWH5); experiment: Selectivity interaction (KinomeScan (DiscoverX)) EUB0001049a NEK10; settings: at 1 µM
T2 sequence (whole entry): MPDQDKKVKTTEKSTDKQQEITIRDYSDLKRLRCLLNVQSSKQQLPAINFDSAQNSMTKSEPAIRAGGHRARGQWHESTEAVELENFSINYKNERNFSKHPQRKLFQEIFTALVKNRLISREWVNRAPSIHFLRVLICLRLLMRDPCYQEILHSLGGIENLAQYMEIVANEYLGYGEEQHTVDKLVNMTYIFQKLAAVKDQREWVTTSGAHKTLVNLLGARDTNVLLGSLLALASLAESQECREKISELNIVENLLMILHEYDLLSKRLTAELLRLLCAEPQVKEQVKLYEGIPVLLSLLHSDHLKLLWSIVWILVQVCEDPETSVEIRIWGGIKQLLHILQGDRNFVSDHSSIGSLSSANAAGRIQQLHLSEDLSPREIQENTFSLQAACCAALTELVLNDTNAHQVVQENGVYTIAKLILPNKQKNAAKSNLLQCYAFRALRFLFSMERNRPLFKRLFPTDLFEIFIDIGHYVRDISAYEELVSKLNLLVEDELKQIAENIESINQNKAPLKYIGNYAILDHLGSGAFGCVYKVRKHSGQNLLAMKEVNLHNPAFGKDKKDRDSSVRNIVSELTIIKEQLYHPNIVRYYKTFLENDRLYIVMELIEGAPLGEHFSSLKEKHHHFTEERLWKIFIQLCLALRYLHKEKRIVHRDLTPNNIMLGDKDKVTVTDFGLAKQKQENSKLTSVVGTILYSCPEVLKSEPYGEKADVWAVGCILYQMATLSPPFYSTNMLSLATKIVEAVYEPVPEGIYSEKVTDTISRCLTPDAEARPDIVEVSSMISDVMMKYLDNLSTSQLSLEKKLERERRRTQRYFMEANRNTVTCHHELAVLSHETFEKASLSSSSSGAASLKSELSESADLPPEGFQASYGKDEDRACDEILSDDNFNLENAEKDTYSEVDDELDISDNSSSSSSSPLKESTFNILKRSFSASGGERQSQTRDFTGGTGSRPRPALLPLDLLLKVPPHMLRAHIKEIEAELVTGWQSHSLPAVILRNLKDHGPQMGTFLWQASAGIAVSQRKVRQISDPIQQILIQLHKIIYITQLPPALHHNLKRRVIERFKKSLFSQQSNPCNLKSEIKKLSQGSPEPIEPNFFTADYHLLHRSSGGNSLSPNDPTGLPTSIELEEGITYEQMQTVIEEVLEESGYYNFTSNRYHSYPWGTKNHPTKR

[17] = target: Tyrosine-protein kinase receptor Tie-1 (Homo sapiens) (UniProt P35590); experiment: Selectivity interaction (KinomeScan (DiscoverX)) EUB0000092b TIE1; settings: at 10 µM
[18] = target: Cyclin-dependent kinase 15 (Homo sapiens) (UniProt Q96Q40); experiment: Selectivity interaction (KinomeScan (DiscoverX)) EUB0000695a CDK15; settings: at 100 nM

Chain of Platelet-derived growth factor receptor alpha (Homo sapiens), P16234 [T674I] (P16234 whole entry T674I): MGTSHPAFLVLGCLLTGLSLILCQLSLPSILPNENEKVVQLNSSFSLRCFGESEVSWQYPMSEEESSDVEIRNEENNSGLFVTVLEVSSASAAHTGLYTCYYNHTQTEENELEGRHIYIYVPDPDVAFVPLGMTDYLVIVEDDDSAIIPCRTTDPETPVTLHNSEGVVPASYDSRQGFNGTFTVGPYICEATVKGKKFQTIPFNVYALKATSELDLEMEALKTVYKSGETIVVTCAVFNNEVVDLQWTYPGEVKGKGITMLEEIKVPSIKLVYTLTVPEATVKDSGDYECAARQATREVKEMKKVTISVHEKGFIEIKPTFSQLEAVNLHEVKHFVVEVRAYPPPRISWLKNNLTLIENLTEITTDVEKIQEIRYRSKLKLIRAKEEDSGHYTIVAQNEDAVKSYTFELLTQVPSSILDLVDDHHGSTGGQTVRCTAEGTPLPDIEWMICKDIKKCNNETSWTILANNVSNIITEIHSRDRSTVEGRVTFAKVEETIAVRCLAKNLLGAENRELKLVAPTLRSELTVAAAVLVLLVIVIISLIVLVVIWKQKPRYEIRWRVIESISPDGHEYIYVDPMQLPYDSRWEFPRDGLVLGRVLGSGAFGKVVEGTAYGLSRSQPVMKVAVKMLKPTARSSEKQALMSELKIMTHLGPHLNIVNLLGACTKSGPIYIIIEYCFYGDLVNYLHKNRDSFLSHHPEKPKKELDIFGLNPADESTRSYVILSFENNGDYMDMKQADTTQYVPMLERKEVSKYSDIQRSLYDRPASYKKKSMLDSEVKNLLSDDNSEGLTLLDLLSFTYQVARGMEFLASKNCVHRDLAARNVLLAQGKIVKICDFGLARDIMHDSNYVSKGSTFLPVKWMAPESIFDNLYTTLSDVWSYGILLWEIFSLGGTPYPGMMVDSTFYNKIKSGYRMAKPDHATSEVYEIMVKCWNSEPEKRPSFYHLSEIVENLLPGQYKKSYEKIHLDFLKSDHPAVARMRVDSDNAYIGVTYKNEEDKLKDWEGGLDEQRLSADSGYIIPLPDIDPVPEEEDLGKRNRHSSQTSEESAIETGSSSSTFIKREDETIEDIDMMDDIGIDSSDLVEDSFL
Chain of Platelet-derived growth factor receptor alpha (Homo sapiens), P16234 [D842V] (P16234 whole entry D842V): as the sequence (P16234 whole entry T674I) above, with I674T, D842V counted along it
Chain of Platelet-derived growth factor receptor alpha (P16234 whole entry): as the sequence (P16234 whole entry T674I) above, with I674T counted along it
Chain of Platelet-derived growth factor receptor alpha (Homo sapiens), P16234 [V561D] (P16234 whole entry V561D): as the sequence (P16234 whole entry T674I) above, with V561D, I674T counted along it
Chain of Ribosomal protein S6 kinase alpha-4 (Homo sapiens) (O75676 whole entry, looked up): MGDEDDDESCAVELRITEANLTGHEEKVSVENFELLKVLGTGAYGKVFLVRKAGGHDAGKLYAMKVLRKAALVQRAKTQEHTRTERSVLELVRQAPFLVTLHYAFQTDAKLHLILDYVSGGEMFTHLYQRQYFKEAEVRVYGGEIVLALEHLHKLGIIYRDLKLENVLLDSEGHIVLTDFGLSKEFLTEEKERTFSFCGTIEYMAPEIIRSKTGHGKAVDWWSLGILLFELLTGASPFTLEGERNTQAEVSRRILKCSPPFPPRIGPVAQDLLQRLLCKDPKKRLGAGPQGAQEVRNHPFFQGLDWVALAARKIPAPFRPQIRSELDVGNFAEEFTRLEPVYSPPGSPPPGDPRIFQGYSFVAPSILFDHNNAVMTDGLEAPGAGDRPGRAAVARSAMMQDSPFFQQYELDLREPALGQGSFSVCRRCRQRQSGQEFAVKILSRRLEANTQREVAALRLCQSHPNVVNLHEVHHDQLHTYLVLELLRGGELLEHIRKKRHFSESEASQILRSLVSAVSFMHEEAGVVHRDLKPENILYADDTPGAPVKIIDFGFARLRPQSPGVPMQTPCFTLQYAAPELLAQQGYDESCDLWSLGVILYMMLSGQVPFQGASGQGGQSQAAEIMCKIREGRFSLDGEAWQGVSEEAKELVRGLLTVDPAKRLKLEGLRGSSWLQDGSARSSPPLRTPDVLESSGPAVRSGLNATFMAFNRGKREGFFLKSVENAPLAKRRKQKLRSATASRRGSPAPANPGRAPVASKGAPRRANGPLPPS

## CCc1cc(Nc2nccc(-c3c(-c4ccc(OC)c(C(=O)Nc5c(F)cccc5F)c4)nc4ccccn34)n2)c(OC)cc1N1CCC(N2CCN(S(C)(=O)=O)CC2)CC1
[1]
  IC50: > 4 µM

## CN(C)C/C=C/C(=O)Nc1ccc(C(=O)N2CCCC(Nc3ncc(Cl)c(-c4c[nH]c5ccccc45)n3)C2)cc1 (stereo not drawn)
[2]
  % of control: 93%

## CN(C)CCOc1ccc(-c2nc(-c3ccncc3)c(-c3ccc4c(c3)CC/C4=N\O)[nH]2)cc1
[3]
  % of control: 55%

## Nc1cnc(N2CCc3cc(S(=O)(=O)Nc4c(F)cc(Cl)cc4F)cc(N4CCCC4=O)c32)nc1 [TP-020n]
[4]
  % of control: 100%
[5]
  % of control: 100%

## N#Cc1cccc(-c2c[nH]c3ncnc(N4CCOCC4)c23)c1
[6]
  % of control: 29%
[7]
  % of control: 98%

## Cc1ccc(-c2ccc3c(ccc4sc5c(c43)NC[C@@H](C)NC5=O)n2)cn1
[8]
  % of inhibition: 41%

## CNCCN1CCC(c2cc(CN(C)C(=O)c3cccc(Oc4ccccc4)c3)ccn2)CC1
[9]
  % activity: > 90%

## COc1cc(N(C)c2ccnc3ccc(C(F)(F)F)cc23)cc(OC)c1OC
[10]
  % binding: 75%

## C=CC(=O)Nc1cccc(C(=O)Nc2ccc(Nc3cc(-c4[nH]c(SC)nc4C)ccn3)cc2)c1
[11]; at 1 µM
  % of control: 97%
[11]; at 5 µM
  % of control: 72%
[12]; at 1 µM
  % of control: 68%
[12]; at 5 µM
  % of control: 41%
[13]; at 1 µM
  % of control: 96%
[13]; at 5 µM
  % of control: 84%
[14]; at 1 µM
  % of control: 91%
[14]; at 5 µM
  % of control: 68%
[15]; at 1 µM
  % of control: 72%
[15]; at 5 µM
  % of control: 65%

## COc1cc(Nc2nc(C)cc(-c3cnn4nc(OC)ccc34)n2)cc(C(F)(F)F)c1
[16]
  % of control: 100%

## CCC(=O)N1CCN(c2ccc(-n3c(=O)ccc4cnc5ccc(-c6cnc7ccccc7c6)cc5c43)cc2C(F)(F)F)CC1
[17]
  % of control: 100%

## Cc1cc(F)c(C(=O)Nc2cccc(-c3nncn3C(C)C)n2)cc1-n1cnc(C2CC2)c1
[18]
  % of control: 100%
